“Also recorded” adds a separate entry of the source.
Legend:
cyclooxygenase-2 (COX-2) = assay: RT-PCR of CNV lesions after treatment: COX-2; format: in vivo
Experimental: (§1) FIG. 7. RT-PCR Data of CNV after treatment. Reduced expression of pro-angiogenic and pro-inflammatory proteins upon treatment with compound 18.
(§2) Compound 18 was prepared using methods known in the art. (For example, see U.S. Pat. Nos. 8,115,023, and 7,683,193). […] (FIG. 3). On Day 7, retinal edema and angiogenesis between the two treatment groups were similar.

VEGF receptor 2 = assay: RT-PCR of CNV lesions after treatment: VEGF receptor 2; format: in vivo
Experimental: as §1, §2

[1] = tested on: VEGF-induced angiogenesis; assay: VEGF-induced angiogenesis in a rabbit eye model; format: in vivo
Experimental: FIG. 2. Inhibition of angiogenesis by compound 18 in a dose-dependent manner—Effect on VEGF-induced angiogenesis in a rabbit eye model. (A) Study design. To evaluate the impact of compound 18, 10 μg of VEGF in each eye is administered as an intravitreal injection. In this study, the activity of compound 18 is evaluated in a concentration escalation manner from 0.125 to 0.5 mg given as a single dosage. A formulation of compound 18 where the dosage is admixed in a total of 50 μL, was administered immediately after VEGF administration. (B) Results.
FIG. 3. Comparison of compound 18 with bevacizumab (Avastin)—Effect on VEGF-induced angiogenesis in a rabbit eye model. The potency of compound 18 was compared with bevacizumab. (A) Study design. Using a VEGF-induction eye model, where 10 μg of VEGF is injected as an intravitreal administration. One dose of 0.5 mg of compound 18 was compared with 1.25 mg bevacizumab after VEGF induction. (B) Results. […] On Day 7, retinal edema and angiogenesis between the two treatment groups were similar.
as §2

CNV lesions = assay: choroidal neovascularization (CNV) model of age-related macular degeneration (AMD), laser induced lesions supplemented with VEGF; format: in vivo; conditions: for CNV lesion number: week 4 of therapy, vs vehicle control; for vessels and edema in the CNV lesions (retinal angiography): by week 4, vs vehicle
Experimental: FIG. 4. Effect of compound 18 in a choroidal neovascularization (CNV) model of age-related macular degeneration (AMD). (A) Study Design: Simultaneous treatment model. Choroidal neovascularization (CNV) model, was used to determine its effect on new blood vessel formation. In this figure, laser induced lesions were further supplemented with 10 μg VEGF intravitreal administration every two weeks. Laser induced AMD lesions penetrated the Bruch's membrane. CNV lesions were treated with 0.5 mg compound 18 administered weekly, where first dosage was given at the time of CNV lesion formation. (B) Results.
FIG. 5. Effect of compound 18 in a choroidal neovascularization (CNV) model of age-related macular degeneration (AMD) A) Study Design: Sequential treatment model. CNV model was used to determine compound 18's effect on new blood vessel formation. Laser induced lesions were supplemented with 10 μg VEGF intravitreal administration every two weeks. CNV lesions were treated with 0.5 mg compound 18 administered weekly, were given one week after CNV lesion formation. (B) Results.
FIG. 6. Quantification of the Lesion Number and Mean Area. CNV lesions were enumerated at baseline, 2 and 4 weeks after CNV lesion formation. (A) Lesion Number. […] (B) Mean Area.
FIG. 8. Optical Coherence Tomography (OCT) of CNV Lesions Over Time. OCT was used to evaluate CNV lesion healing after compound 18 treatment.
FIG. 9. Confocal Scanning Fluorescent Microscope of CNV Lesions. Confocal scanning fluorescent microscopy is used to visualize the level of neovascular growth. In the vehicle treated lesions (Left), extensive neovascular growth is noted after one month.
FIG. 10. Confocal Scanning Electron Microscopy of CNV lesions treated with vehicle (Left) was compared with compound 18 treatment (Right).
as §2

[2] = tested on: human mammary endothelial cells (HMEC); assay: tube formation assay (HMEC cultured in Geltrex); format: cell-based; conditions: 24 hours, concentration escalation, at greater than 100 nM, compared to untreated or no Geltrex
Experimental: FIG. 1. Inhibition of angiogenesis by compound 18 in a dose-dependent manner—Effect on tube formation. The effect of Compound 18 was evaluated using tube formation assay using a concentration escalation design.
as §2

[3] = Day 7, 10 μg VEGF intravitreal, one dose

Row | Molecule | expression of cyclooxygenase-2 (COX-2) (RT-PCR) (cyclooxygenase-2 (COX-2); sequential (SQ) treatment) | expression of cyclooxygenase-2 (COX-2) (RT-PCR) (cyclooxygenase-2 (COX-2); simultaneous (SM) treatment) | expression of VEGF receptor 2 (RT-PCR) (VEGF receptor 2; sequential (SQ) treatment) | expression of VEGF receptor 2 (RT-PCR) (VEGF receptor 2; simultaneous (SM) treatment) | activity profile vs Avastin ([1]; 0.5 mg compound 18 vs 1.25 mg Avastin, Day 3 and Day 7 findings) | retinal edema and angiogenesis, 0.5 mg compound 18 compared to 1.25 mg bevacizumab ([1]; Day 3, 10 μg VEGF intravitreal, one dose) | retinal edema and angiogenesis between the two treatment groups (0.5 mg compound 18 vs 1.25 mg bevacizumab) [1, 3] | level of retinal edema and angiogenesis vs vehicle ([1]; Day 7, 10 μg VEGF intravitreal, single dose, doses >0.25 mg (0.125 to 0.5 mg tested)) | neovascular growth in CNV lesions (confocal scanning fluorescent microscopy) (CNV lesions; after one month, vs vehicle treated lesions) | CNV lesion healing by Optical Coherence Tomography (OCT) (CNV lesions; same lesion evaluated at 2 weeks and 4 weeks) | mean CNV area (CNV lesions; sequential (SQ) treatment) | CNV lesion number (CNV lesions; sequential (SQ) treatment) | vessels and edema in the CNV lesions (retinal angiography) (CNV lesions; sequential treatment model, 0.5 mg weekly starting one week after lesion formation) | mean CNV area (CNV lesions; simultaneous (SM) treatment) | CNV lesion number (CNV lesions; simultaneous (SM) treatment) | vessels and edema in the CNV lesions (retinal angiography) (CNV lesions; simultaneous treatment model, 0.5 mg weekly from time of lesion formation) | morphology of CNV lesions (Confocal Scanning Electron Microscopy) (CNV lesions; vs vehicle (neovascular growth penetrating the Bruch's membrane)) | inhibition of tube formation (angiogenesis) [2]
1 | CCCCC[C@@H](O)/C=C/c1cccc(/C=C/[C@@H](O)[C@@H](O)CCCC(=O)OC)c1 [Compound 18] | significantly reduced the expression | significantly reduced the expression | significantly reduced the expression | significantly reduced the expression | comparable or improved activity profile vs Avastin | significantly lower retinal edema and angiogenesis | similar | significantly reduced | significant reduction in neovascular growth | able to promote healing of a lesion | reduction in the mean CNV area | significantly reduced CNV lesion | statistically significant reduction in the vessels and edema | reduction in the mean CNV area | significantly reduced CNV lesion | statistically significant reduction in the vessels and edema | thin-walled fenestrated vascular channels with flat configuration | able to inhibit angiogenesis in a dose-response manner; also recorded: notable inhibition of tube formation
2 | bevacizumab: FDA-approved anti-VEGF antibody injected intravitreally [reference compound] |  |  |  |  |  |  | similar |  |  |  |  |  |  |  |  |  |  | 
